According to patent US20220409727A1, “Metal Complexes Bearing Bisstyryl-Bipyridine Ligand and Their Use as Photosensitizer Agent in One and Two-Photon Photodynamic Therapy” (Paris Sciences et Lettres, priority 2019, published 2022):
Where two headings read alike, the source gives them in different places. Values belong to the compound of their own block, whether it stands above or below them.

Key:
[1] = system: human cervical carcinoma (HeLa) cells; assay: (Photo-)cytotoxicity on 2D cell monolayers, resazurin assay, HeLa; type: cell-based; details: for PI (480 nm): dark vs 480 nm (10 min, 3.1 J/cm^2)
Text: Before an experiment, the cells were passaged three times.

[2] = system: non-cancerous retinal pigment epithelium (RPE-1) cells; assay: (Photo-)cytotoxicity on 2D cell monolayers, resazurin assay, RPE-1; details: for PI (480 nm): RPE-1, dark vs 480 nm (10 min, 3.1 J/cm^2);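 on all read-outs here: cells exposed to compound 4 h, medium exchanged, then irradiated or kept dark, 44 h further growth, viability by resorufin fluorescence (ex 540 nm, em 590 nm)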
Protocol: The human glioblastoma astrocytoma (U373) cell line was cultured in MEM medium supplemented with 10% FBS, 1% NEAA (non-essential amino-acids) and 1% penicillin/streptomycin. […] The human retinal epithelial cells (RPE-1, non-cancerous cells immortalized with hTERT) were cultured in DMEM-F12 medium supplemented with 10% FBS and 1% penicillin/streptomycin. All cell lines were obtained from the American Type Culture Collection (ATCC) and cultured at 37° C. and 5% CO2. Before an experiment, the cells were passaged three times.
The cytotoxicity of the compounds was assessed by measuring cell viability using a fluorometric resazurin assay. The cultivated cells were seeded in triplicates in 96 well plates with a density of 4000 cells per well in 100 μL of media. After 24 h, the medium was removed and the cells were treated with increasing concentrations of the compound diluted in cell media achieving a total volume of 200 μL. The cells were incubated with the compound for 4 h. After this time, the media was removed and replaced with 200 μL of fresh medium. For the phototoxicity studies, the cells were exposed to light with an Atlas Photonics LUMOS BIO irradiator. Each well was constantly illuminated with either a 480 nm or 540 nm irradiation. During this time, the temperature was maintained constantly at 37° C. The cells were grown in the incubator for additional 44 h. For the determination of the dark cytotoxicity, the cells were not irradiated and after the medium exchange directly incubated for 44 h. After this time, the medium was replaced with fresh medium containing resazurin with a final concentration of 0.2 mg/mL. After 4 h incubation, the amount of the fluorescent product resorufin was determined upon excitation at 540 nm and measurement its emission at 590 nm using a SpectraMax M2 Microplate Reader (Molecular Devices).
The obtained data was analyzed with the GraphPad Prism software.

HeLa MCTS = assay: (Photo-)cytotoxicity on 3D multicellular tumor spheroids (ATP, CellTiter-Glo 3D); type: cell-based, human; details: for IC50: Homo sapiens
Protocol: autoclave. The hot emulsion was transferred into wells (50 μL per well) of a 96 cell culture well plate. The plates were exposed for 3 h to UV irradiation to ensure the sterility and allow the agarose solution to cool down. After this time, the agarose was overlayed with a HeLa cell suspension at a density of 3000 cells per well in 150 μL of media. The MCTS were cultivated and maintained at 37° C. in a cell culture incubator at 37° C. with 5% CO2 atmosphere. The culture media was replaced every two days. Within two-three days MCTs were formed from the cell suspension. The formation as well as integrity, diameter and volume of the MCTs was monitored by an Axio Observer Z1 (Carl Zeiss) phase contrast microscope. The volume was calculated using the following formula: V=4/3πr^3. The luminescence images along the z-axis were captured by a one-(λex=458 nm, λem=600-750 nm) or two-photon (λex=800 nm, λem=600-750 nm) excitation in the z-stack mode with a an LSM 880 (Carl Zeiss) laser scanning confocal microscope equipped with Argon and a Coherent Chameleon 2-Photon laser and a GaAsP detector.
The cytotoxicity of the compounds in 3D multicellular tumor spheroids (MCTS) was assessed by measurement of the ATP concentration. MCTS were treated with increasing concentrations of the compound (2% DMSO, v %) by replacing 50% of the media with drug supplemented media and incubation for 12 h. After this time, the MCTS were divided in three identical groups. The first group was strictly kept in the dark. The second group was exposed to a one-photon irradiation (500 nm, 10 J/cm^2) using a LED and the third group was exposed to a two-photon irradiation (800 nm, 10 J/cm^2) with a section interval of 5 μm using a LSM 880 (Carl Zeiss, Germany) laser scanning confocal microscope equipped with a Coherent Chameleon 2-Photon laser. After the irradiation, all groups were incubated additional 48 h. The ATP concertation was measured using a CellTiter-Glo 3D Cell Viability kit (Promega) by measuring the generated chemiluminescence with an infinite M200 PRO (Tecan) plate reader.

[3] = system: human glioblastoma astrocytoma (U373) cells
[4] = system: human glioblastoma astrocytoma (U373) cells; assay: (Photo-)cytotoxicity on 2D cell monolayers, resazurin assay, U373; details: for IC50: Homo sapiens, U373 MG
[5] = system: mouse colon carcinoma (CT-26) cells; assay: (Photo-)cytotoxicity on 2D cell monolayers, resazurin assay, CT-26; details: for IC50: Mus musculus
[6] = system: mouse colon carcinoma (CT-26) cells
[7] = dark, 4 h incubation, compounds 1-3 as chloride salts, read-out: IC50 dark
[8] = read-out: IC50 480 nm (10 min, 3.1 J/cm^2), irradiation 480 nm (10 min, 3.1 J/cm^2), compounds 1-3 as chloride salts

Compound: COc1ccc(/C=C/c2ccnc(-c3cc(/C=C/c4ccc(OC)cc4)ccn3)c2)cc1.F[P-](F)(F)(F)(F)F.F[P-](F)(F)(F)(F)F.[Os+2].c1ccc(-c2ccccn2)nc1.c1ccc(-c2ccccn2)nc1 [Compound 16, [Os(bpy)2((E,E′)-4,4′-Bis[p-methoxystyryl]-2,2′-bipyridine)][PF6]2]
PI (480 nm) [1]: >4
IC50 [1, 7]: > 100000 nM
IC50 [1, 8]: 27000 ± 6000 nM
PI (480 nm) [2]: >3

Compound: F[P-](F)(F)(F)(F)F.F[P-](F)(F)(F)(F)F.Fc1ccc(C=Cc2ccnc(-c3cc(C=Cc4ccc(F)cc4)ccn3)c2)cc1.[Ru+2].c1ccc(-c2ccccn2)nc1.c1ccc(-c2ccccn2)nc1 [Compound 14, [Ru(bpy)2((E,E′)-4,4′-Bis[p-fluorostyryl]-2,2′-bipyridine)][PF6]2]
PI (480 nm) [1]: >125
IC50 [1, 7]: > 100000 nM
IC50 [1, 8]: 800 ± 100 nM
PI (480 nm) [2]: >68

Compound: COc1ccc(/C=C/c2ccnc(-c3cc(/C=C/c4ccc(OC)cc4)ccn3)c2)cc1.F[P-](F)(F)(F)(F)F.F[P-](F)(F)(F)(F)F.[Ru+2].c1cnc(-c2cnccn2)cn1.c1cnc(-c2cnccn2)cn1 [Compound 19, [Ru(bpz)2((E,E′)-4,4′-Bis[p-methoxystyryl]-2,2′-bipyridine)][PF6]2]
PI (480 nm) [1]: >2
IC50 [1, 7]: > 100000 nM
IC50 [1, 8]: 59000 ± 8000 nM

Compound: F[P-](F)(F)(F)(F)F.F[P-](F)(F)(F)(F)F.Oc1ccc(/C=C/c2ccnc(-c3cc(/C=C/c4ccc(O)cc4)ccn3)c2)cc1.[Ru+2].c1ccc(-c2ccccn2)nc1.c1ccc(-c2ccccn2)nc1 [Compound 15, [Ru(bpy)2((E,E′)-4,4′-Bis[p-hydroxystyryl]-2,2′-bipyridine)][PF6]2]
PI (480 nm) [1]: >100
IC50 [1, 7]: > 100000 nM
IC50 [1, 8]: 1000 ± 300 nM
PI (480 nm) [2]: >9

Compound: C1=Cc2nc1c(-c1ccccc1)c1ccc([nH]1)c(-c1ccccc1)c1nc(c(-c3ccccc3)c3ccc([nH]3)c2-c2ccccc2)C=C1 [Compound H2TPP, tetraphenylporphyrin, reference compound]
IC50 (HeLa MCTS; dark, 12 h incubation, read-out: IC50 dark): > 100000 nM
IC50 (HeLa MCTS; light or radiation study, 1-Photon irradiation (500 nm, 10 J/cm^2), read-out: IC50 1-Photon irradiation (500 nm, 10 J/cm^2)): > 100000 nM
IC50 (HeLa MCTS; light or radiation study, 2-Photon irradiation (800 nm, 10 J/cm^2, section interval of 5 μm), read-out: IC50 2-Photon irradiation (800 nm, 10 J/cm^2)): > 100000 nM
PI (2-Photon) (HeLa MCTS; dark vs 2-Photon irradiation (800 nm, 10 J/cm^2)): >100

Compound: [Ru(bpy)2((E,E′)-4,4′-Bis[p-aminostyryl]-2,2′-bipyridine)][PF6]2 [Compound 17]
PI (480 nm) [1]: >71
IC50 [1, 7]: > 100000 nM
IC50 [1, 8]: 1400 ± 100 nM
PI (480 nm) [2]: >13

Compound: COc1cccc(/C=C/c2ccnc(-c3cc(/C=C/c4cccc(OC)c4)ccn3)c2)c1.F[P-](F)(F)(F)(F)F.F[P-](F)(F)(F)(F)F.[Ru+2].c1ccc(-c2ccccn2)nc1.c1ccc(-c2ccccn2)nc1 [Compound 12, [Ru(bpy)2((E,E′)-4,4′-Bis[m-methoxystyryl]-2,2′-bipyridine)][PF6]2]
PI (480 nm) [1]: >167
IC50 [1, 7]: > 100000 nM
IC50 [1, 8]: 600 ± 300 nM
PI (480 nm) [2]: >63

Compound: COc1ccc(/C(C)=C/c2ccnc(-c3cc(/C=C(\C)c4ccc(OC)cc4)ccn3)c2)cc1.F[P-](F)(F)(F)(F)F.F[P-](F)(F)(F)(F)F.[Ru+2].c1ccc(-c2ccccn2)nc1.c1ccc(-c2ccccn2)nc1 [Compound 18]
PI (480 nm) [1]: >6
IC50 [1, 7]: > 100000 nM
IC50 [1, 8]: 16700 ± 700 nM
PI (480 nm) [2]: >3

Compound: COc1ccccc1C=Cc1ccnc(-c2cc(C=Cc3ccccc3OC)ccn2)c1.F[P-](F)(F)(F)(F)F.F[P-](F)(F)(F)(F)F.[Ru+2].c1ccc(-c2ccccn2)nc1.c1ccc(-c2ccccn2)nc1 [Compound 13, [Ru(bpy)2((E,E′)-4,4′-Bis[o-methoxystyryl]-2,2′-bipyridine)][PF6]2]
PI (480 nm) [1]: >124
IC50 [1, 7]: 62000 ± 10000 nM
IC50 [1, 8]: 500 ± 100 nM
PI (480 nm) [2]: >66

IC50 [3]: 1200 ± 300 nM
IC50 [6]: 400 ± 200 nM
Compound: C=CC1=C(C)c2cc3[nH]c(cc4nc(cc5[nH]c(cc1n2)c(C)c5CCC(=O)O)C(CCC(=O)O)=C4C)c(C)c3C=C [PpIX, Protoporphyrin IX, reference compound]
IC50 ([4]; 4 h, read-out: IC50 dark): 10100 ± 700 nM
IC50 ([4]; light or radiation study, 10 min, read-out: IC50 480 nm (10 min, 3.1 J/cm^2)): 1300 ± 200 nM
PI (480 nm) ([4]; U373, dark vs 480 nm (10 min, 3.1 J/cm^2)): 7.8
PI (540 nm) ([4]; U373, dark vs 540 nm (40 min, 9.5 J/cm^2)): 8.4
IC50 ([1]; Homo sapiens, dark, 4 h incubation, compounds 1-3 as chloride salts, read-out: IC50 dark): > 100000 nM
IC50 ([1]; Homo sapiens, light or radiation study, 10 min, read-out: IC50 480 nm (10 min), irradiation 480 nm (10 min, 3.1 J/cm^2), compounds 1-3 as chloride salts): 2500 ± 100 nM
IC50 ([1]; Homo sapiens, light or radiation study, 40 min, read-out: IC50 540 nm (40 min), irradiation 540 nm (40 min, 9.5 J/cm^2), compounds 1-3 as chloride salts): 2100 ± 300 nM
PI (480 nm) [1]: >40.0
PI (540 nm) ([1]; dark vs 540 nm (40 min, 9.5 J/cm^2)): >47.6
PI (480 nm) ([5]; CT-26, dark vs 480 nm (10 min, 3.1 J/cm^2)): 7.0
PI (540 nm) ([5]; CT-26, dark vs 540 nm (40 min, 9.5 J/cm^2)): 5.6
IC50 ([5]; CT26, 4 h, read-out: IC50 dark): 2800 ± 500 nM
IC50 ([5]; CT26, light or radiation study, 40 min, read-out: IC50 540 nm (40 min, 9.5 J/cm^2)): 500 ± 200 nM
PI (480 nm) [2]: >26.3
PI (540 nm) ([2]; RPE-1, dark vs 540 nm (40 min, 9.5 J/cm^2)): >30.3
